Results as given in patent publication US20230071672A1, “PRESERVING FLUOROPHORE FUNCTION” (Lions VisionGift, priority 2021, published 2023).

Tests used:
[1] = stored over night at 4° C., or frozen and thawed; cited from earlier work
corneas = test: Staining of corneas for 15 minutes and fluorescence microscopy imaging after storage of the stain; type: cell-based
Method: Calcein AM (2.5 μg/mL) was prepared with 1.7% sodium hyaluronic acid in a balanced salt solution. Three corneas were stained for 15 minutes and imaged under the same conditions. The cornea shown in FIG. 1A was stained with the mixture immediately after preparation. The cornea shown in FIG. 1B was stained with the mixture after the mixture had been stored frozen for 5 days. The cornea shown in FIG. 1C was stained with the mixture after the mixture had been stored frozen for 3 months.
Calcein-AM (2.5 μg/mL) was prepared according to manufacturer's recommendations. All corneas were stained for 15 minutes and imaged under the same conditions.

[2] = in water and alcohol; cited from earlier work

In the case of calcein AM, the functionality after storage [1] is listed as “lose functionality”, the “fluorescence signal with storage time” value (corneas; stored under 4° C. refrigeration, protected from light, overnight, five days, one month, three months, FIGS. 2B-2E) is listed as “loses intensity with the storage time length” and the “fluorescence signal after storage” value (corneas; three months' storage under 4° C. refrigeration, FIG. 2E) is listed as “completely lost”. For the same substance, the solubility [2] was “only slightly soluble”.
